Patent US20200268762A1, “7-SUBSTITUTED SULFONIMIDOYLPURINONE COMPOUNDS AND DERIVATIVES FOR THE TREATMENT AND PROPHYLAXIS OF LIVER CANCER” (Hoffmann-La Roche Inc., priority 2019, published 2020)
“Also recorded” adds a separate entry of the source.

Columns and labels:
[1] = test system: Hep55.1c tumor bearing mice; assay: Transplanted Hep55.1c mouse model of hepatocellular carcinoma, tumor volume by μCT; assay type: in vivo, C57BL/6N mice; details: Hep55.1c intrahepatic tumors; 41-A 10 mg/kg weekly oral; anti-CD40 4 mg/kg single dose; vs vehicle
Description: Female C57BL/6N mice (Jackson Laboratories) were injected intra hepatically with 5×10^5 Hep55.1c tumor cell line together with Matrigel (Matrigel Basement Membrane Matrix, Corning Cat #354234) in a total volume of […] (10 μl cell suspension plus 10 μl Martigel). Tumor volume was monitored weekly using μCT (TomoScope Synergy Twin, CT Imaging GmbH) upon a single intravenous administration of contrasting agent Exitron 6000 (Viscovert). Imaging data were reconstructed by TomoScope software and analyzed using Osirix software. […] To compare to another agonistic, immune stimulating agent, a single dose of anti-CD40 antibody (4 mg/kg; clone FGK.45, BioXCell) was given. Data depicted are means±SEM for a minimum of n=9 animals per group.

[2] = test system: PD-L1 expression on tumor cells; assay: PD-L1 expression on tumor cells of iAST mice by flow cytometry; assay type: in vivo, mouse; details: day 12 after treatment start
Description: Tumors from iAST mice were treated as described in FIG. 1. […] For flow cytometry, tumors were excised and single cell suspensions obtained by mechanical processing and enzymatic digestion (DNAse 0.01%, Collagenase IV 1 mg/ml). Staining procedures started with Fc receptor blocking using 2.4G2 antibody clone (1:200 dilution, BD Bioscience), and the following antibodies (clones) were used to analyzed leukocyte infiltrate: CD45-FITC (30-F11, BioLegend) and CD11b-BUV737 (M1/70, BD Bioscience). Samples were acquired using a LSR Fortessa machine (BD Bioscience) and analyzed by FlowJo version 10 (Treestar).

[3] = test system: Hep55.1c mouse model of hepatocellular carcinoma; assay: Hep55.1c tumor fragment transplantation model, survival; assay type: in vivo, C57BL/6N mice; details: alive on day 94 after tumor fragment transplantation; 41-A weekly oral, anti-PD-1 250 μg i.p. 8 doses
Description: Female C57BL/6N mice (Jackson Laboratories) were injected intra hepatically with 5×10^5 Hep55.1c tumor cell line together with Matrigel (Matrigel Basement Membrane Matrix, Corning Cat #354234) in a total volume of 20 μl (10 μl cell suspension plus 10 μl Martigel). After 3 weeks, animals were sacrificed and tumors excised from the liver. Excised tumors were cut into 1×1 mm^3 pieces and implanted into the liver of female C57BL/6N mice. Scout animals were sacrificed to determine the time point of treatment start at about 80 mm^3 tumor volume. […] 41-A was given weekly, while anti-PD-1 antibody treatment started one day after 41-A treatment and was continued every three to four days for 8 doses in total. Treatment with both agents was stopped after the last anti-PD-1 administration.

[4] = test system: iAST mouse model of hepatocellular carcinoma; assay: iAST mouse model of hepatocellular carcinoma, tumor burden; details: iAST mice, day 12 after treatment start; 41-A 10 mg/kg once a week oral, Sorafenib 90 mg/kg daily
Description: Per group n=10 were analyzed by One-way ANOVA and Tukey correction shown as individual dots with means±SEM using GraphPad Prism software version 6.

For `CCCN(C)C(=O)n1c(=O)n(Cc2ccc(Cl)cc2)c2nc([S@](=N)(=O)CC)nc(N)c21` [Example 41-A, 6-Amino-9-[(4-chlorophenyl)methyl]-2-[S(R)-ethylsulfonimidoyl]-N-methyl-8-oxo-N-propyl-purine-7-carboxamide], the “tumor growth (tumor volume)” value [1] was “tumor stasis; also recorded: inhibition of tumor growth”, the “PD-L1 expression on tumor cells” value [2] was “induced PD-L1 expression on tumor cells” and the “PD-L1 expression on tumor cells” value ([2]; listed as compound 41-A) was “induces PD-L1 expression on tumor cells”. The survival of mice [3] was 5/10 and the “Examination of the liver for superficial tumor nodules (tumor nodule free)” value [4] was 0/10 tumor nodule free.
